# Where two headings read alike, the source gives them in different places.
# Tests used:
# [1] = tested on: S. apiospermum; experiment: Broth microdilution antifungal susceptibility, NCCLS M38-A; type: cell-based, Scedosporium apiospermum
# [2] = tested on: Blastomyces dermatitidis; experiment: as above; type: cell-based
# [3] = tested on: A. flavus ATCC 204304; experiment: as above; type: cell-based, Aspergillus flavus; conditions: minimal concentration inhibiting >95% growth; average of at least two assays (except I-l and I-x)
# [4] = tested on: A. fumigatus ATCC 204305; experiment: as above; type: cell-based, Aspergillus fumigatus; conditions: minimal concentration inhibiting >95% growth; average of at least two assays (except I-l and I-x)
# [5] = tested on: Candida albicans; conditions: 50% growth inhibition, range = minimum and maximum of multiple assays; for MIC C. albicans 24433: strain 24433; for MIC C. albicans 90028: strain 90028
# [6] = tested on: Histoplasma capsulatum; type: cell-based
# [7] = tested on: Fusarium solani; experiment: Broth microdilution antifungal susceptibility, NCCLS M38-A; type: cell-based; conditions: strain 96-1; 50% growth inhibition; range = minimum and maximum of multiple assays
# [8] = tested on: Trichophyton mentagrophytes; experiment: Dermatophyte broth microdilution, NCCLS M38-A; type: cell-based
# [9] = tested on: C. immitis; experiment: microbe, parasite or virus in culture; type: cell-based, Coccidioides immitis; conditions: for MIC: Coccidioides immitis
# [10] = tested on: Trichophyton rubrum; experiment: Dermatophyte broth microdilution, NCCLS M38-A; type: cell-based
# [11] = tested on: Cryptococcus neoformans; experiment: Broth microdilution antifungal susceptibility, NCCLS M38-A; conditions: 50% growth inhibition, range = minimum and maximum of multiple assays; for MIC C. neoformans 97-14: strain 97-14; for MIC C. neoformans 11239: strain 11239; for MIC C. neoformans 11240: strain 11240
# [12] = tested on: C. posadasii; experiment: microbe, parasite or virus in culture; type: cell-based, Coccidioides posadasii; conditions: for MIC: Coccidioides posadasii
# [13] = tested on: Trichophyton interdigitale; experiment: Dermatophyte broth microdilution, NCCLS M38-A; type: cell-based
# [14] = tested on: Microsporum canis; experiment: Dermatophyte broth microdilution, NCCLS M38-A; type: cell-based
# [15] = tested on: Microsporum gypseum; experiment: Dermatophyte broth microdilution, NCCLS M38-A; type: cell-based
# [16] = tested on: Epidermophyton floccosum; experiment: Dermatophyte broth microdilution, NCCLS M38-A; type: cell-based
Compound,MIC S. apiospermum 94-54 [1] [µg/mL],MIC S. apiospermum 98-38 [1] [µg/mL],MIC S. apiospermum 98-89 [1] [µg/mL],MIC B. dermatitidis Gu [2] [µg/mL],MIC B. dermatitidis Kr [2] [µg/mL],MIC B. dermatitidis V [2] [µg/mL],MIC0 A. flavus ATCC 204304 [3] [µg/mL],MIC0 A. fumigatus ATCC 204305 [4] [µg/mL],MIC C. albicans 24433 [5] [µg/mL],MIC C. albicans 90028 [5] [µg/mL],MIC F. solani 96-1 [7] [µg/mL],MIC0 Tm [8] [µg/mL],MIC0 Tr [10] [µg/mL],MIC C. neoformans 97-14 [11] [µg/mL],MIC C. neoformans 11239 [11] [µg/mL],MIC C. neoformans 11240 [11] [µg/mL],MIC0 Ti [13] [µg/mL],MIC0 Mc [14] [µg/mL],MIC0 Mg [15] [µg/mL],MIC0 Ef [16] [µg/mL],also measured
"CC[C@H]1O[C@@H](/C(C)=C/[C@H](C)/C=C/[C@H]2[C@@H](C)[C@@H]2/C=C/[C@@H]2O[C@H](CCO)C[C@H](N(C)C)[C@H]2O)CC=C1C [I-ff, (5S,6R)-5-(dimethylamino)polyangi-1,6-diol]",32,16,0.5,>12.5,>12.5,>12.5,1.76,2.07,32,32,8 to 16,–,–,–,–,–,–,–,–,–,MIC0 Blastomyces dermatitidis 04-2167 [2]: 0.06 µg/mL; MIC0 Blastomyces dermatitidis 04-2508 [2]: 0.06 µg/mL; MIC0 Blastomyces dermatitidis 04-2915 [2]: 0.06 µg/mL; MIC0 Blastomyces dermatitidis 05-106 [2]: 0.06 µg/mL; MIC0 Blastomyces dermatitidis 05-186 [2]: 0.06 µg/mL; MIC0 Blastomyces dermatitidis 05-1391 [2]: 0.06 µg/mL; MIC0 Blastomyces dermatitidis 05-1707 [2]: ≦0.015 μg/mL; MIC0 Blastomyces dermatitidis 05-1820 [2]: 0.03 µg/mL; MIC0 Blastomyces dermatitidis 05-1829 [2]: 0.06 µg/mL; MIC0 Blastomyces dermatitidis 05-2020 [2]: 0.06 µg/mL; MIC0 Blastomyces dermatitidis R-3529 [2]: 0.03 µg/mL; MIC0 Blastomyces dermatitidis R-35629 [2]: 0.06 µg/mL; MIC H. capsulatum G217B [6]: <0.19 µg/mL; MIC H. capsulatum GS20 [6]: <0.19 µg/mL
"CCOC(=O)O[C@H]1[C@H](/C=C/[C@H]2[C@H](C)[C@@H]2/C=C/[C@@H](C)/C=C(\C)[C@H]2CC=C(C)[C@@H](CC)O2)O[C@H](CC(N)=O)C[C@@H]1N(C)C [I-ii, (5S,6R)-5-(dimethylamino)-6-ethoxycarbonyloxy-polyangiamide]",–,–,–,–,–,–,1,1,–,–,–,1.41,1.58,0.5 to 1,0.25,0.25 to 0.5,1.58,0.5,1,1,MIC C. immitis RMS 2281 [9]: 0.125 µg/mL; MIC C. immitis RS [9]: 0.25 µg/mL; MIC C. immitis S46 [9]: 0.25 µg/mL; MIC C. posadasii C735 [12]: 0.5 µg/mL; MIC C. posadasii RMSCC 2127 [12]: 0.25 µg/mL; MIC C. posadasii Silveria [12]: 0.5 µg/mL
"CC[C@H]1O[C@@H](/C(C)=C/[C@H](C)/C=C/[C@H]2[C@@H](C)[C@@H]2/C=C/[C@@H]2O[C@H](CC(=O)O)C[C@H](N(C)Cc3cccnc3)[C@H]2O)CC=C1C [I-w, (5S,6R)-5-(N-(3-pyridyl)methyl-methylamino)-6-hydroxypolyangioic acid]",>16,>16,2,–,–,–,4,4.25,>32,>32,>16,–,–,1,0.5,0.5 to 1,–,–,–,–,–
OC(Cn1cncn1)(Cn1cncn1)c1ccc(F)cc1F [Fluconazole],–,–,–,–,–,–,–,–,–,–,–,–,–,–,–,–,–,–,–,–,MIC ([9]; read-out: MIC C. immitis RMS 2281): 16 µg/mL; MIC ([9]; read-out: MIC C. immitis RS): 16 µg/mL; MIC ([9]; read-out: MIC C. immitis S46): 16 µg/mL; MIC ([12]; read-out: MIC C. posadasii C735): 16 µg/mL; MIC ([12]; read-out: MIC C. posadasii RMSCC 2127): 16 µg/mL; MIC ([12]; read-out: MIC C. posadasii Silveria): 4 µg/mL
"CC[C@H]1O[C@@H](/C(C)=C/[C@H](C)/C=C/[C@H]2[C@@H](C)[C@@H]2/C=C/[C@@H]2O[C@H](CC(=O)O)C[C@H](N(C)CCO)[C@H]2O)CC=C1C [I-n, (5S,6R)-5-(N-(2-hydroxyethyl)-methylamino)-6-hydroxypolyangioic acid]",>16,>16,0.125 to 0.25,6.25,>12.5,>12.5,2,1.4,>32,>32,>16,8,2.51,0.25,0.125 to 0.25,0.125 to 0.25,1.25,2.82,1.99,2,MIC H. capsulatum G217B [6]: <0.19 µg/mL; MIC H. capsulatum GS20 [6]: <0.19 µg/mL
"(5S,6R)-5-(N-(4-imidazolyl)methyl-methylamino)-6-hydroxypolyangioic acid [I-h]",>16,>16,0.125 to 0.25,–,–,–,1.0,2.1,>32,>32,>16,–,–,0.5,0.25,0.25,–,–,–,–,–
"CC[C@H]1O[C@@H](/C(C)=C/[C@H](C)/C=C/[C@H]2[C@@H](C)[C@@H]2/C=C/[C@@H]2O[C@H](CC(N)=O)C[C@H](N(C)C)[C@H]2O)CC=C1C [I-hh, (5S,6R)-5-(dimethylamino)polyangiamide]",32,32,1 to 2,–,–,–,2,1,32,32,16,2.82,2.51,1,1,1,3.17,0.7,1.25,2.82,–
"CC[C@H]1O[C@@H](/C(C)=C/[C@H](C)/C=C/[C@H]2[C@@H](C)[C@@H]2/C=C/[C@@H]2O[C@H](CC(=O)O)C[C@H](N(CC)CC)[C@H]2O)CC=C1C [I-z, (5S,6R)-5-(diethylamino)-6-hydroxypolyangioic acid]",>16,>16,0.25 to 0.5,>12.5,>12.5,>12.5,2.2,2.1,>32,>32,>16,4,1.25,0.5 to 1,0.25 to 0.5,0.5,0.79,2,1.58,4,MIC H. capsulatum G217B [6]: <0.19 µg/mL; MIC H. capsulatum GS20 [6]: <0.19 µg/mL
